Like-named read-outs stand apart in the source and are kept apart here.
Biological target: BRD2 (Homo sapiens, UniProt P25440)
Test: Western blot of BRD2 levels after cellular dosing
Conditions: for remaining activity at 2.19382 µM: Log SJ46420 (uM) 2.19382; for remaining activity at 2.79588 µM: Log SJ46420 (uM) 2.79588; for remaining activity at 3.09691 µM: Log SJ46420 (uM) 3.09691; for remaining activity at 3.39794 µM: Log SJ46420 (uM) 3.39794; for remaining activity at 3.69897 µM: Log SJ46420 (uM) 3.69897; for remaining activity at 4 µM: Log SJ46420 (uM) 4
[1] = 22Rv1, read-out: BRD2 (DMSO = 100), 22Rv1 cells, Rep1, Rep2
[2] = PC-3, read-out: BRD2 (DMSO = 100), PC3 cells, Rep1, Rep2

Chain of BRD2 (P25440 whole entry): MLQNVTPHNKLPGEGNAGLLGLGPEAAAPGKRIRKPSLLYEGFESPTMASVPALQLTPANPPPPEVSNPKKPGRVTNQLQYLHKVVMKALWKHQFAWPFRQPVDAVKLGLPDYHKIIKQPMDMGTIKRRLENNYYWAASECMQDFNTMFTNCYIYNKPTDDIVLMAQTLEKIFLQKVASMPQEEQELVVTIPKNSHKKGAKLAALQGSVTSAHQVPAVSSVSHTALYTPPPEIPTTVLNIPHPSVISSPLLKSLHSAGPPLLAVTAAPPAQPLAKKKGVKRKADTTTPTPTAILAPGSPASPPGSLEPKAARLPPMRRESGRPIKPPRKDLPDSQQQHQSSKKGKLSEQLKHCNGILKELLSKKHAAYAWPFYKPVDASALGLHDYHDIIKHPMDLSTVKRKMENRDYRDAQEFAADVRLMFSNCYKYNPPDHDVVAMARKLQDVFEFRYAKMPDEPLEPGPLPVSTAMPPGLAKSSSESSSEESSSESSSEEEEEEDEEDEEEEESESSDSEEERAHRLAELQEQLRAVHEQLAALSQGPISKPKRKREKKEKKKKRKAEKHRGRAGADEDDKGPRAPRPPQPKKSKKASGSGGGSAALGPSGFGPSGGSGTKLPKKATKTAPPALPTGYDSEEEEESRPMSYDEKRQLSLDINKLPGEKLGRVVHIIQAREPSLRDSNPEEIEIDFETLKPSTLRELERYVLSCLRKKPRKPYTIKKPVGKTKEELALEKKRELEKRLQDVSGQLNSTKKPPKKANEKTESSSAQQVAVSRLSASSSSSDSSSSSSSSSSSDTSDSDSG

Q: With `COC(=O)CNC(=O)Cc1csc(-c2ccc3cccc(OCCN4CCN(C(=O)C[C@@H]5N=C(c6ccc(Cl)cc6)c6c(sc(C)c6C)-n6c(C)nnc65)CC4)c3c2)n1` [SJ46420] as the compound, how does the remaining activity at 0.16 µM (22Rv1, 24 h, read-out: BRD2 level relative to DMSO (100%), 22Rv1, 0.16µM, 24 h, Fig S6f) read?
A: 99 ± 7.4%

Q: What about the remaining activity at 0.31 µM (22Rv1, 24 h, read-out: BRD2 level relative to DMSO (100%), 22Rv1, 0.31µM, 24 h, Fig S6f) of the same compound?
A: 92 ± 16%

Q: And the remaining activity at 0.63 µM (22Rv1, 24 h, read-out: BRD2 level relative to DMSO (100%), 22Rv1, 0.63µM, 24 h, Fig S6f)?
A: 93 ± 8.7%

Q: What about the remaining activity at 1.3 µM (22Rv1, 24 h, read-out: BRD2 level relative to DMSO (100%), 22Rv1, 1.3µM, 24 h, Fig S6f) of the same compound?
A: 88 ± 1.3%

Q: What about the remaining activity at 2.5 µM (22Rv1, 24 h, read-out: BRD2 level relative to DMSO (100%), 22Rv1, 2.5µM, 24 h, Fig S6f) of the same compound?
A: 83 ± 5.5%

Q: What about the remaining activity at 5 µM (22Rv1, 24 h, read-out: BRD2 level relative to DMSO (100%), 22Rv1, 5µM, 24 h, Fig S6f) of the same compound?
A: 87 ± 7.4%

Q: And the remaining activity at 10 µM (22Rv1, 24 h, read-out: BRD2 level relative to DMSO (100%), 22Rv1, 10µM, 24 h, Fig S6f)?
A: 92 ± 5.6%

Q: What about the remaining activity at 2.19382 µM [1] of the same compound?
A: 94.2%

Q: What about the remaining activity at 2.79588 µM [1] of the same compound?
A: 98.7%

Q: What about the remaining activity at 3.09691 µM [1] of the same compound?
A: 88.1%

Q: And the remaining activity at 3.39794 µM [1]?
A: 87.2%

Q: What about the remaining activity at 3.69897 µM [1] of the same compound?
A: 92.7%

Q: And the remaining activity at 4 µM [1]?
A: 96.3%

Q: And the Dmax (22Rv1, read-out: BRD2 Dmax, 22Rv1, 24 h dose)?
A: 0%

Q: And the remaining activity at 0.156 µM (22Rv1, read-out: BRD2 level, Western blot quantification (DMSO = 100), Fig S6f, 22RV1 KO/rescue Dose Response, 0.156 uM)?
A: 94.2%

Q: And the remaining activity at 0.625 µM (22Rv1, read-out: BRD2 level, Western blot quantification (DMSO = 100), Fig S6f, 22RV1 KO/rescue Dose Response, 0.625 uM)?
A: 98.7%

Q: What about the remaining activity at 1.25 µM (22Rv1, read-out: BRD2 level, Western blot quantification (DMSO = 100), Fig S6f, 22RV1 KO/rescue Dose Response, 1.25 uM) of the same compound?
A: 88.1%

Q: What about the remaining activity at 2.5 µM (22Rv1, read-out: BRD2 level, Western blot quantification (DMSO = 100), Fig S6f, 22RV1 KO/rescue Dose Response, 2.5 uM) of the same compound?
A: 87.2%

Q: What about the remaining activity at 5 µM (22Rv1, read-out: BRD2 level, Western blot quantification (DMSO = 100), Fig S6f, 22RV1 KO/rescue Dose Response, 5 uM) of the same compound?
A: 92.7%

Q: And the remaining activity at 10 µM (22Rv1, read-out: BRD2 level, Western blot quantification (DMSO = 100), Fig S6f, 22RV1 KO/rescue Dose Response, 10uM)?
A: 96.3%

Q: What about the remaining activity at 0.16 µM (24 h, read-out: BRD2 level relative to DMSO (100%), PC3, 0.16µM, 24 h, Fig S6e) of the same compound?
A: 90 ± 11%

Q: And the remaining activity at 0.31 µM (24 h, read-out: BRD2 level relative to DMSO (100%), PC3, 0.31µM, 24 h, Fig S6e)?
A: 98 ± 2.9%

Q: What about the remaining activity at 0.63 µM (24 h, read-out: BRD2 level relative to DMSO (100%), PC3, 0.63µM, 24 h, Fig S6e) of the same compound?
A: 83 ± 3.4%

Q: What about the remaining activity at 1.3 µM (24 h, read-out: BRD2 level relative to DMSO (100%), PC3, 1.3µM, 24 h, Fig S6e) of the same compound?
A: 89 ± 5.6%

Q: What about the remaining activity at 2.5 µM (24 h, read-out: BRD2 level relative to DMSO (100%), PC3, 2.5µM, 24 h, Fig S6e) of the same compound?
A: 92 ± 9.1%

Q: And the remaining activity at 5 µM (24 h, read-out: BRD2 level relative to DMSO (100%), PC3, 5µM, 24 h, Fig S6e)?
A: 91 ± 7.6%

Q: And the remaining activity at 10 µM (24 h, read-out: BRD2 level relative to DMSO (100%), PC3, 10µM, 24 h, Fig S6e)?
A: 88 ± 9.1%

Q: What about the remaining activity at 0.2 µM (AU565, 8 h, read-out: BRD2 level relative to DMSO (100%), AU565, 0.2µM, 8 h, Fig S6c) of the same compound?
A: 93 ± 3.1%

Q: What about the remaining activity at 1 µM (AU565, 8 h, read-out: BRD2 level relative to DMSO (100%), AU565, 1µM, 8 h, Fig S6c) of the same compound?
A: 96 ± 6.2%

Q: And the remaining activity at 5 µM (AU565, 8 h, read-out: BRD2 level relative to DMSO (100%), AU565, 5µM, 8 h, Fig S6c)?
A: 90 ± 5.1%

Q: And the remaining activity at 0.2 µM (AU565, read-out: BRD2 level, Western blot quantification (DMSO = 100), Fig S6c, AU565 Cells, 0.2 uM)?
A: 91.6%

Q: And the remaining activity at 1 µM (AU565, read-out: BRD2 level, Western blot quantification (DMSO = 100), Fig S6c, AU565 Cells, 1 uM)?
A: 101%

Q: And the remaining activity at 5 µM (AU565, read-out: BRD2 level, Western blot quantification (DMSO = 100), Fig S6c, AU565 Cells, 5 uM)?
A: 87%

Q: And the remaining activity at 2.5 µM (HEK-293T, 24 h, read-out: BRD2 level relative to DMSO (100%), 293T, 2.5µM, 24 h, Fig S6a)?
A: 89 ± 9.5%

Q: And the remaining activity at 5 µM (HEK-293T, 24 h, read-out: BRD2 level relative to DMSO (100%), 293T, 5µM, 24 h, Fig S6a)?
A: 92 ± 2.5%

Q: And the remaining activity at 2.5 µM (HEK-293T, read-out: BRD2 level, Western blot quantification (DMSO = 100), Fig S6a, 293T cells, 2.5 uM)?
A: 82%

Q: And the remaining activity at 5 µM (HEK-293T, read-out: BRD2 level, Western blot quantification (DMSO = 100), Fig S6a, 293T cells, 5 uM)?
A: 91.4%

Q: What about the remaining activity at 2.5 µM (MDA-MB-468, 24 h, read-out: BRD2 level relative to DMSO (100%), MDA-MB-468, 2.5µM, 24 h, Fig S6b) of the same compound?
A: 79 ± 8.9%

Q: And the remaining activity at 5 µM (MDA-MB-468, 24 h, read-out: BRD2 level relative to DMSO (100%), MDA-MB-468, 5µM, 24 h, Fig S6b)?
A: 89 ± 3.9%

Q: And the remaining activity at 10 µM (MDA-MB-468, 24 h, read-out: BRD2 level relative to DMSO (100%), MDA-MB-468, 10µM, 24 h, Fig S6b)?
A: 91 ± 3.1%

Q: What about the remaining activity at 2 µM (MDA-MB-468, read-out: BRD2 level, Western blot quantification (DMSO = 100), Fig S6b, MDA-MB468 Cells, 2 uM) of the same compound?
A: 73.4%

Q: What about the remaining activity at 5 µM (MDA-MB-468, read-out: BRD2 level, Western blot quantification (DMSO = 100), Fig S6b, MDA-MB468 Cells, 5 uM) of the same compound?
A: 86.5%

Q: And the remaining activity at 10 µM (MDA-MB-468, read-out: BRD2 level, Western blot quantification (DMSO = 100), Fig S6b, MDA-MB468 Cells, 10 uM)?
A: 89.6%

Q: What about the remaining activity at 1.89279 µM (PC-3, read-out: BRD2 (DMSO = 100), PC3 cells, Log SJ46420 (uM) 1.89279, Rep1, Rep2) of the same compound?
A: 89%

Q: What about the remaining activity at 2.19382 µM [2] of the same compound?
A: 83.3%

Q: What about the remaining activity at 2.49485 µM (PC-3, read-out: BRD2 (DMSO = 100), PC3 cells, Log SJ46420 (uM) 2.49485, Rep1, Rep2) of the same compound?
A: 100%

Q: What about the remaining activity at 2.79588 µM [2] of the same compound?
A: 81.2%

Q: And the remaining activity at 3.09691 µM [2]?
A: 85.7%

Q: And the remaining activity at 3.39794 µM [2]?
A: 86.6%

Q: What about the remaining activity at 3.69897 µM [2] of the same compound?
A: 86.5%

Q: What about the remaining activity at 4 µM [2] of the same compound?
A: 81.6%

Q: What about the remaining activity at 1 µM (SK-BR-3, 2 h, read-out: BRD2 level relative to DMSO (100%), SKBR3, 1µM, 2hr, Fig S6g) of the same compound?
A: 71 ± 3.9%

Q: And the remaining activity at 5 µM (SK-BR-3, 2 h, read-out: BRD2 level relative to DMSO (100%), SKBR3, 5µM, 2hr, Fig S6g)?
A: 69 ± 10%

Q: And the remaining activity at 1 µM (SK-BR-3, 2 h, read-out: BRD2 level, Western blot quantification (DMSO = 100), Fig S6g, SKBR3 Time course, 1 uM, 2hr)?
A: 67.4%

Q: What about the remaining activity at 5 µM (SK-BR-3, 2 h, read-out: BRD2 level, Western blot quantification (DMSO = 100), Fig S6g, SKBR3 Time course, 5 uM, 2hr) of the same compound?
A: 61.5%

Q: What about the remaining activity at 1 µM (SK-BR-3, 4 h, read-out: BRD2 level relative to DMSO (100%), SKBR3, 1µM, 4hr, Fig S6g) of the same compound?
A: 82 ± 4%

Source: article PMC11470957, “Principles of paralog-specific targeted protein degradation engaging the C-degron E3 KLHDC2” (Nature Communications, 2024)
